The record followed here is ChEMBL document CHEMBL1144807, “Ciliatamides A-C, bioactive lipopeptides from the deep-sea sponge Aaptos ciliata” (J Nat Prod, 2008).

For test [1], the system named is Leishmania major. Put plainly: Antileishmanial activity against Leishmania major egfp promastigotes at 10 ug/ml. The format is functional. The note with it: for inhibition of growth at 10 µg/mL: read-out: GI.
Test [2] deals with HeLa. Nature of the test: Cytotoxicity against human HeLa cells lines by MTT assay. In kind it is cell-based.

Converted amounts (≈) assume the structure as drawn. The source made the active and inactive calls. No cut-off for these calls is given here.

As for `CCCCCCCC(=O)N(C)[C@@H](Cc1ccccc1)C(=O)N[C@H]1CCCCNC1=O` [CILIATAMIDES B], in test [1], the inhibition of growth at 10 µg/mL was 45.5%. For the same molecule, the IC50 in test [2] was 4.5 µg/mL (≈ 10.8 µM).
For `C=CCCCCCCCC(=O)N(C)[C@@H](Cc1ccccc1)C(=O)N[C@H]1CCCCNC1=O` [CILIATAMIDES A], the inhibition of growth at 10 µg/mL in test [1] was determined as 50%. This molecule also registered an IC50 in test [2] of 50 µg/mL (≈ 113 µM).
For `C=CCCCCCCCC(=O)N(C)[C@@H](Cc1ccccc1)C(=O)N[C@H]1CCCNC1=O` [CILIATAMIDES C], in test [1], the result was inactive. The same molecule came in with an IC50 in test [2] of 50 µg/mL (≈ 117 µM).

The IC50 is the midpoint of a concentration-inhibition curve. Low readings indicate greater potency, high ones weaker potency.
